Measurements: publication PMC7870075, “Physicochemical properties and formulation development of a novel compound inhibiting Staphylococcus aureus biofilm formation” (PLoS ONE, 2021)
“And” between values parts separate entries of the source, which are not always exact repeats. Equal values may be shown once. Marks after values point to notes of the source that are not given here.

Key:
[1] = Effect of pH on CCG-211790 degradation; assay type: physicochemical; conditions: for CCG-211790 concentration: 37°C; for chemical stability: twelve weeks
Experimental: The concentration of CCG-211790 in deionized water or aqueous solutions was determined using an Agilent series 1100 HPLC system (Agilent Technologies, Santa Clara, CA, USA) equipped with diode array detector. Sample separation was carried out with a Kinetex C18 column (75 mm × 3 mm, particle size 2.6 μm, Phenomenex Inc., Torrance, CA, USA). The mobile phase of acetonitrile-water (50:50, v/v) was used for chromatographic separation. The flow rate was set to 0.5 mL/min, column temperature to 35°C. The absorption was measured at wavelength 255 nm. The injection volume was 30 μL. The retention time of CCG-211790 was 4.9 min. The method detection limit was 0.02 mg/L. Calibration curves were established giving a correlation coefficient >0.9900. Effect of pH on CCG-211790 degradation was investigated at indicated pH (1–10) over a period of three months. Briefly, pH 1, 2 or 10 were achieved by dissolving CCG-211790 bulk powder in a mixture of acetonitrile and water (25:75, v/v) with the pH being adjusted with hydrochloride acid solution (12 mole/L) or sodium hydroxide solution (15 mole/L). Similarly, pH 3–9 were achieved by dissolving CCG-211790 powder in a mixture of acetonitrile and PBS (25:75, v/v) with the pH also being adjusted with the hydrochloride acid solution or the sodium hydroxide solution. All samples were incubated at 37°C. CCG-211790 concentrations in the mixture solutions were determined via HPLC analysis at predetermined time points (0, 2, 4 and 12 weeks).

[2] = tested on: S. aureus NRS384 strain; assay: Biofilm assay (96-well microtiter plate, crystal violet staining); assay type: cell-based, Staphylococcus aureus; conditions: for Inhibition of biofilm formation (vs treated with DMSO %): NRS384, single replicates
Experimental: Methicillin-resistant Staphylococcus aureus (MRSA) USA300 strain NRS384 (Strain USA300-0114, NR-46070), was provided by the Network on Antimicrobial Resistance in Staphylococcus aureus (NARSA) for distribution by BEI Resources, NIAID, NIH. The NRS384 strain was grown in Todd-Hewitt broth containing 0.2% yeast extract (THY) (Difco, Detroit, MI, USA). The medium for growth of static biofilms was THY with 0.5% glucose. All bacterial cultures were incubated at 37°C.
The biofilm assay was performed using 96-well polystyrene flat-bottom microtiter plate as described previously. Overnight cultures of S. aureus were diluted 1:200 with fresh THY medium containing 0.5% glucose. […] Non-adherent bacteria were washed away by PBS three times. Biofilms attached to microtiter plates were stained by crystal violet solution (Sigma-Aldrich, St. Louis, MO, USA) for 15 min. Excess stain was removed by washing with PBS. The crystal violet attached to biofilm samples was dissolved with ethanol. The absorbance at 595 nm was measured using Spectrostar Nano spectrophotometer (BMG Labtech, Ortenberg, Germany) as the value of biofilm formation. Percentage inhibition of sample treated with CCG-211790 was calculated against the mean of samples treated with DMSO. […] IC50 (the half maximal inhibitory concentration) was estimated.
Statistical analysis of the results was performed using a two-sided Student’s t-test. Dose Response fitting function in Origin was used to calculate the IC50. The IC50 was calculated by plotting the inhibition percentage (y) versus logarithm of dose (x), and fitting the data using the equation y=A1+A2−A1/1+10^(Logx0−x)p . IC50 was calculated as 10^logx0 . A1 stands for bottom asymptote, A2 stands for top asymptote and p is the hill slope (Origin 7.0, OriginLab Corporation, Northampton, MA, USA).

SMILES: COc1ccc2c(c1)-c1nc(SCC(F)(F)F)n(C)c(=O)c1C(C)(C)C2 [CCG-211790, 9-Methoxy-3,5,5-trimethyl-2-((2,2,2-trifluoroethyl)thio)-5,6-dihydrobenzo[h]quinazolin-4(3H)-one]
- CCG-211790 concentration ([1]; pH 1, 0 week, acetonitrile/water): 11.1 µg/mL
- CCG-211790 concentration ([1]; pH 1, 2 weeks, acetonitrile/water): 9.4 ^* μg/mL
- CCG-211790 concentration ([1]; pH 1, 4 weeks, acetonitrile/water): 7.2 ^** μg/mL
- CCG-211790 concentration ([1]; pH 1, 12 weeks, acetonitrile/water): 2.1 ^** μg/mL
- chemical stability ([1]; pH 1, 37°C): degraded
- CCG-211790 concentration ([1]; pH 2, 0 week, acetonitrile/water): 11.6 µg/mL
- CCG-211790 concentration ([1]; pH 2, 2 weeks, acetonitrile/water): 11.9 µg/mL
- CCG-211790 concentration ([1]; pH 2, 4 weeks, acetonitrile/water): 11.2 ^* μg/mL
- CCG-211790 concentration ([1]; pH 2, 12 weeks, acetonitrile/water): 10.7 ^* μg/mL
- chemical stability ([1]; pH 2–10, 37°C): maintained most chemical stability
- CCG-211790 concentration ([1]; pH 3, 0 week, acetonitrile/PBS): 11.9 µg/mL
- CCG-211790 concentration ([1]; pH 3, 2 weeks, acetonitrile/PBS): 11.9 µg/mL
- CCG-211790 concentration ([1]; pH 3, 4 weeks, acetonitrile/PBS): 11.4 µg/mL
- CCG-211790 concentration ([1]; pH 3, 12 weeks, acetonitrile/PBS): 11.7 µg/mL
- CCG-211790 concentration ([1]; pH 4, 0 week, acetonitrile/PBS): 10.9 µg/mL
- CCG-211790 concentration ([1]; pH 4, 2 weeks, acetonitrile/PBS): 11.4 µg/mL
- CCG-211790 concentration ([1]; pH 4, 4 weeks, acetonitrile/PBS): 11.6 ^* μg/mL
- CCG-211790 concentration ([1]; pH 4, 12 weeks, acetonitrile/PBS): 11.3 µg/mL
- CCG-211790 concentration ([1]; pH 5, 0 week, acetonitrile/PBS): 11.0 µg/mL
- CCG-211790 concentration ([1]; pH 5, 2 weeks, acetonitrile/PBS): 11.3 ^* μg/mL
- CCG-211790 concentration ([1]; pH 5, 4 weeks, acetonitrile/PBS): 11.5 µg/mL
- CCG-211790 concentration ([1]; pH 5, 12 weeks, acetonitrile/PBS): 11.2 µg/mL
- CCG-211790 concentration ([1]; pH 6, 0 week, acetonitrile/PBS): 11.1 µg/mL
- CCG-211790 concentration ([1]; pH 6, 2 weeks, acetonitrile/PBS): 11.4 µg/mL
- CCG-211790 concentration ([1]; pH 6, 4 weeks, acetonitrile/PBS): 11.0 µg/mL
- CCG-211790 concentration ([1]; pH 6, 12 weeks, acetonitrile/PBS): 10.1 µg/mL
- CCG-211790 concentration ([1]; pH 7, 0 week, acetonitrile/PBS): 11.8 µg/mL
- CCG-211790 concentration ([1]; pH 7, 2 weeks, acetonitrile/PBS): 11.2 ^* μg/mL
- CCG-211790 concentration ([1]; pH 7, 4 weeks, acetonitrile/PBS): 10.9 ^* μg/mL
- CCG-211790 concentration ([1]; pH 7, 12 weeks, acetonitrile/PBS): 11.5 µg/mL
- CCG-211790 concentration ([1]; pH 8, 0 week, acetonitrile/PBS): 11.2 µg/mL
- CCG-211790 concentration ([1]; pH 8, 2 weeks, acetonitrile/PBS): 11.2 µg/mL
- CCG-211790 concentration ([1]; pH 8, 4 weeks, acetonitrile/PBS): 11.1 µg/mL
- CCG-211790 concentration ([1]; pH 8, 12 weeks, acetonitrile/PBS): 11.6 µg/mL
- CCG-211790 concentration ([1]; pH 9, 0 week, acetonitrile/PBS): 11.0 µg/mL
- CCG-211790 concentration ([1]; pH 9, 2 weeks, acetonitrile/PBS): 11.3 ^* μg/mL
- CCG-211790 concentration ([1]; pH 9, 4 weeks, acetonitrile/PBS): 11.2 µg/mL
- CCG-211790 concentration ([1]; pH 9, 12 weeks, acetonitrile/PBS): 10.5 µg/mL
- CCG-211790 concentration ([1]; pH 10, 0 week, acetonitrile/water): 10.4 µg/mL
- CCG-211790 concentration ([1]; pH 10, 2 weeks, acetonitrile/water): 11.0 ^* μg/mL
- CCG-211790 concentration ([1]; pH 10, 4 weeks, acetonitrile/water): 10.5 µg/mL
- CCG-211790 concentration ([1]; pH 10, 12 weeks, acetonitrile/water): 10.7 ^* μg/mL
- Inhibition of biofilm formation (vs treated with DMSO %) ([2]; 0.39 µM): 3.94% and -13.46% and 12.53% and 16.63% and 8.53% and 4.38% and 18.40% and 26.22% and 15.26%
- Inhibition of biofilm formation (vs treated with DMSO %) ([2]; 0.78 µM): 8.82% and 2.09% and 10.90% and 24.07% and 16.41% and 12.91% and 26.42% and 26.03% and 21.14%
- Inhibition of biofilm formation (vs treated with DMSO %) ([2]; 1.56 µM): 29.00% and 47.10% and 40.37% and 45.73% and 49.67% and 47.05% and 51.47% and 53.42% and 52.45%
- Inhibition of biofilm formation (vs treated with DMSO %) ([2]; 3.13 µM): 41.76% and 55.22% and 48.72% and 60.18% and 56.46% and 59.74% and 54.01% and 55.58% and 57.14%
- Inhibition of biofilm formation (vs treated with DMSO %) ([2]; 6.25 µM): 62.41% and 64.27% and 61.48% and 70.02% and 63.24% and 70.24% and 69.08% and 70.25% and 66.93%
- Inhibition of biofilm formation (vs treated with DMSO %) ([2]; 12.50 µM): 65.20% and 63.57% and 64.97% and 75.93% and 70.24% and 70.02% and 75.73% and 75.34% and 73.19%
- Inhibition of biofilm formation (vs treated with DMSO %) ([2]; 25.00 µM): 70.30% and 69.84% and 74.25% and 79.43% and 78.99% and 75.05% and 76.52% and 81.02% and 80.63%
- Inhibition of biofilm formation (vs treated with DMSO %) ([2]; 50.00 µM): 79.58% and 79.12% and 79.35% and 82.49% and 82.28% (2×) and 80.23% and 79.06% and 83.76%
- IC50 ([2]; Staphylococcus aureus, MRSA / NRS 384 / USA300, S. aureus NRS384 (MRSA USA300), overnight 37°C, crystal violet, read-out: IC50 of the inhibition of biofilm formation): 1280 ± 450 nM
